Test results published in patent US8017612B2, “Piperazine compound and use thereof as a HCV polymerase inhibitor” (priority 2006, dated 2011).

Assays:
[1] = target: T1, HCV polymerase (NS5B) type 1a (Hepatitis C virus genotype 1a, UniProt P26664); assay: Assay of enzyme (HCV polymerase) inhibitory activity, type 1a enzyme; assay type: biochemical, HCV type 1a (cloned from the blood of patients); conditions: HCV polymerase inhibitory activity IC50, 1a, type 1a enzyme
T1 construct: made in house; host or cells: Escherichia coli (by the 'similar method' of the 1b enzyme)
Outline: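 IC50 values derive from radioactivity of newly synthesized RNA with versus without test compound. The enzyme was C-terminally truncated type 1a NS5B, 1.5 μg/ml, run 60 min at 25° C with 3H-UTP-labelled nucleotides.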

[2] = target: T2, HCV polymerase (NS5B) type 1b (Hepatitis C virus genotype 1b, UniProt P26663); assay: Assay of enzyme (HCV polymerase) inhibitory activity, type 1b enzyme; assay type: biochemical, HCV BK strain (type 1b); conditions: HCV polymerase inhibitory activity IC50, 1b, type 1b enzyme
T2 construct: a region encoding NS5B (J Virol 1991 March, 65(3), 1105-13, 544 amino acids after deletion of 47 amino acids on the C-terminal); 6xHis (C); made in house; host or cells: Escherichia coli
Outline: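 Polymerase activity was followed as radiolabelled UTP incorporation by E. coli-expressed, His-tagged NS5B of HCV type 1b lacking its last 47 residues. Conditions: 2 μM UTP, 50 μM other NTPs, Mg2+ buffer at pH 7.5, 25 °C for 60 min. Inhibition relative to compound-free reactions gave IC50.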

Compound	IC50 [1]	IC50 [2]
CCC(F)(F)c1ccc(CNC(=O)[C@H]2CN(c3cnc4cncnc4n3)CCN2S(=O)(=O)c2ccc(-c3cccc(O)c3)cc2)cc1 [Example 725, (R)-1-(3′-hydroxy-biphenyl-4-sulfonyl)-4-pteridin-7-yl-piperazine-2-carboxylic acid 4-(1,1-difluoro-propyl)-benzylamide]	< 100 nM	< 100 nM
CCC(F)(F)c1ccc(CNC(=O)[C@H]2CN(c3cnc4cnccc4n3)CCN2S(=O)(=O)c2ccc([N+](=O)[O-])cc2)cc1 [Example 726, (R)-1-(4-nitro-benzenesulfonyl)-4-pyrido[3,4-b]pyrazin-2-yl-piperazine-2-carboxylic acid 4-(1,1-difluoro-propyl)-benzylamide]	< 100 nM	< 100 nM
CCC(F)(F)c1ccc(CNC(=O)[C@H]2CN(c3cnc4cnccc4n3)CCN2S(=O)(=O)c2ccc(-c3ccccc3)cc2)cc1 [Example 727, (R)-1-(biphenyl-4-sulfonyl)-4-pyrido[3,4-b]pyrazin-2-yl-piperazine-2-carboxylic acid 4-(1,1-difluoro-propyl)-benzylamide]	< 100 nM	< 100 nM
CCCc1ccc(CNC(=O)[C@H]2CN(c3ccc(C(=O)OC(C)(C)C)s3)CCN2S(=O)(=O)c2ccc(OC(F)(F)F)cc2)cc1 [Example 728, 5-[(R)-3-(4-propyl-benzylcarbamoyl)-4-(4-trifluoromethoxy-benzenesulfonyl)-piperazin-1-yl]-thiophene-2-carboxylic acid tert-butyl ester]	100 to 1000 nM	100 to 1000 nM
CCC(F)(F)c1ccc(CNC(=O)[C@H]2CN(c3cnc4cncnc4n3)CCN2S(=O)(=O)c2ccc3c(c2)CCC(CC(=O)O)CC3)cc1 (stereo partly drawn) [Example 729, (2-{(R)-2-[4-(1,1-difluoro-propyl)-benzylcarbamoyl]-4-pteridin-7-yl-piperazine-1-sulfonyl}-6,7,8,9-tetrahydro-5H-benzocyclohepten-7-yl)-acetic acid]	< 100 nM	< 100 nM
O=C(NCc1ccc(-c2ccccn2)s1)[C@H]1CN(c2cnc3cncnc3n2)CCN1S(=O)(=O)c1ccc(OC(F)(F)F)cc1 [Example 730, (R)-4-pteridin-7-yl-1-(4-trifluoromethoxy-benzenesulfonyl)-piperazine-2-carboxylic acid (5-pyridin-2-yl-thiophen-2-ylmethyl)-amide]	< 100 nM	< 100 nM
CCC(F)(F)c1ccc(CNC(=O)[C@H]2CN(c3cnc4cncnc4n3)CCN2S(=O)(=O)c2ccc(-c3ccccc3OCC(=O)O)cc2)cc1 [Example 731, (4′-{(R)-2-[4-(1,1-difluoro-propyl)-benzylcarbamoyl]-4-pteridin-7-yl-piperazine-1-sulfonyl}-biphenyl-2-yloxy)-acetic acid]	< 100 nM	< 100 nM
CCC(F)(F)c1ccc(CNC(=O)[C@H]2CN(c3cnc4cncnc4n3)CCN2S(=O)(=O)c2ccc(-c3cccc(OCC(=O)O)c3)cc2)cc1 [Example 732, (4′-{(R)-2-[4-(1,1-difluoro-propyl)-benzylcarbamoyl]-4-pteridin-7-yl-piperazine-1-sulfonyl}-biphenyl-3-yloxy)-acetic acid]	< 100 nM	< 100 nM
CCC(F)(F)c1ccc(CNC(=O)[C@H]2CN(C(=O)CNc3cccnc3)CCN2S(=O)(=O)c2ccc(OC(F)(F)F)cc2)cc1 [Example 733, (R)-4-[2-(pyridin-3-ylamino)-acetyl]-1-(4-trifluoromethoxy-benzenesulfonyl)-piperazine-2-carboxylic acid 4-(1,1-difluoro-propyl)-benzylamide]	100 to 1000 nM	100 to 1000 nM
CCC(F)(F)c1ccc(CNC(=O)[C@H]2CN(C(=O)CNc3ccn(C)n3)CCN2S(=O)(=O)c2ccc(OC(F)(F)F)cc2)cc1 [Example 734, (R)-4-[2-(1-methyl-1H-pyrazol-3-ylamino)-acetyl]-1-(4-trifluoromethoxy-benzenesulfonyl)-piperazine-2-carboxylic acid 4-(1,1-difluoro-propyl)-benzylamide]	100 to 1000 nM	100 to 1000 nM
CCC(F)(F)c1ccc(CNC(=O)[C@H]2CN(c3cnc4cnccc4n3)CCN2S(=O)(=O)c2ccc(C(F)(F)F)cc2)cc1 [Example 735, (R)-4-pyrido[3,4-b]pyrazin-2-yl-1-(4-trifluoromethyl-benzenesulfonyl)-piperazine-2-carboxylic acid 4-(1,1-difluoro-propyl)-benzylamide]	< 100 nM	< 100 nM
CCC(F)(F)c1ccc(CNC(=O)[C@H]2CN(c3cnc4cnccc4n3)CCN2S(=O)(=O)c2ccc(N(C)C)cc2)cc1 [Example 736, (R)-1-(4-dimethylamino-benzenesulfonyl)-4-pyrido[3,4-b]pyrazin-2-yl-piperazine-2-carboxylic acid 4-(1,1-difluoro-propyl)-benzylamide]	< 100 nM	< 100 nM
CCC(F)(F)c1ccc(CNC(=O)[C@H]2CN(c3cnc4cncnc4n3)CCN2S(=O)(=O)c2ccc(Br)s2)cc1 [Example 737, (R)-1-(5-bromo-thiophene-2-sulfonyl)-4-pteridin-7-yl-piperazine-2-carboxylic acid 4-(1,1-difluoro-propyl)-benzylamide]	< 100 nM	< 100 nM
CCC(F)(F)c1ccc(CNC(=O)[C@H]2CN(c3cnc4cncnc4n3)CCN2S(=O)(=O)c2cc3ccccc3s2)cc1 [Example 738, (R)-1-(benzo[b]thiophene-2-sulfonyl)-4-pteridin-7-yl-piperazine-2-carboxylic acid 4-(1,1-difluoro-propyl)-benzylamide]	< 100 nM	< 100 nM
CCC(F)(F)c1ccc(CNC(=O)[C@H]2CN(c3nc4cccnc4s3)CCN2S(=O)(=O)c2ccc(OC(F)(F)F)cc2)cc1 [Example 739, (R)-4-thiazolo[5,4-b]pyridin-2-yl-1-(4-trifluoromethoxy-benzenesulfonyl)-piperazine-2-carboxylic acid 4-(1,1-difluoro-propyl)-benzylamide]	< 100 nM	< 100 nM
CCC(F)(F)c1ccc(CNC(=O)[C@H]2CN(c3ccc4cnccc4n3)CCN2S(=O)(=O)c2ccc(OC(F)(F)F)cc2)cc1 [Example 740, (R)-4-[1,6]naphthyridin-2-yl-1-(4-trifluoromethoxy-benzenesulfonyl)-piperazine-2-carboxylic acid 4-(1,1-difluoro-propyl)-benzylamide]	< 100 nM	< 100 nM
CCC(F)(F)c1ccc(CNC(=O)[C@H]2CN(c3cnc4c(Cl)cccc4n3)CCN2S(=O)(=O)c2ccc(OC(F)(F)F)cc2)cc1 [Example 741, (R)-4-(5-chloro-quinoxalin-2-yl)-1-(4-trifluoromethoxy-benzenesulfonyl)-piperazine-2-carboxylic acid 4-(1,1-difluoro-propyl)-benzylamide]	100 to 1000 nM	< 100 nM
CCC(F)(F)c1ccc(CNC(=O)[C@H]2CN(c3cnc4cccc(Cl)c4n3)CCN2S(=O)(=O)c2ccc(OC(F)(F)F)cc2)cc1 [Example 742, (R)-4-(8-chloro-quinoxalin-2-yl)-1-(4-trifluoromethoxy-benzenesulfonyl)-piperazine-2-carboxylic acid 4-(1,1-difluoro-propyl)-benzylamide]	100 to 1000 nM	< 100 nM
CCC(F)(F)c1ccc(CNC(=O)[C@H]2CN(c3cnc4cnccc4n3)CCN2S(=O)(=O)c2ccc(N3CCCC3)cc2)cc1 [Example 743, (R)-4-pyrido[3,4-b]pyrazin-2-yl-1-(4-pyrrolidin-1-yl-benzenesulfonyl)-piperazine-2-carboxylic acid 4-(1,1-difluoro-propyl)-benzylamide]	< 100 nM	< 100 nM
CCC(F)(F)c1ccc(CNC(=O)[C@H]2CN(c3cnc4cncnc4n3)CCN2S(=O)(=O)c2ccc([C@H]3CC[C@H](CC(=O)O)CC3)cc2)cc1 [Example 744, trans-[4-(4-{(R)-2-[4-(1,1-difluoro-propyl)-benzylcarbamoyl]-4-pteridin-7-yl-piperazine-1-sulfonyl}-phenyl)-cyclohexyl]-acetic acid]	< 100 nM	< 100 nM
O=C(NCc1ccc(OC(F)(F)F)cc1)[C@H]1CN(c2cnc3cnccc3n2)CCN1S(=O)(=O)c1ccc(OC(F)(F)F)cc1 [Example 745, (R)-4-pyrido[3,4-b]pyrazin-2-yl-1-(4-trifluoromethoxy-benzenesulfonyl)-piperazine-2-carboxylic acid 4-trifluoromethoxy-benzylamide]	< 100 nM	< 100 nM
CCC(F)(F)c1ccc(CNC(=O)[C@H]2CN(c3cnc4cnccc4n3)CCN2S(=O)(=O)c2ccc(N3CCOCC3)cc2)cc1 [Example 746, (R)-1-(4-morpholin-4-yl-benzenesulfonyl)-4-pyrido[3,4-b]pyrazin-2-yl-piperazine-2-carboxylic acid 4-(1,1-difluoro-propyl)-benzylamide]	< 100 nM	< 100 nM
CCC(F)(F)c1ccc(CNC(=O)[C@H]2CN(c3cnc4cncnc4n3)CCN2S(=O)(=O)c2ccc(OC)cc2)cc1 [Example 747, (R)-1-(4-methoxy-benzenesulfonyl)-4-pteridin-7-yl-piperazine-2-carboxylic acid 4-(1,1-difluoro-propyl)-benzylamide]	< 100 nM	< 100 nM
